Assay results: patent US20250290928A1, “METHOD, KIT AND DEVICE FOR DETECTING EXTRACELLULAR VESICLES” (priority 2022, published 2025)
Primed or numbered codes have the meaning given here. *: point of attachment. Dabcyl′ = 4-((4-(dimethylamino)phenyl)azo)benzoic acid, CN(C)c1ccc(/N=N/c2ccc(C(=O)*)cc2)cc1; 5FAM = O=C1OC2(c3ccc(O)cc3Oc3cc(O)ccc32)c2ccc(C(=O)*)cc21

Legend:
[1] = tested on: β-galactosidase activity inherent in the MDA-MB-231-derived extracellular vesicles; test: Evaluation of β-galactosidase activity of MDA-MB-231-derived extracellular vesicles in 96-well plate; assay type: biochemical, Human; details: Example 33, 30° C., no CD9/CD63/CD81 detection system
Protocol: For detection of MMP14 activity, 1 mM Custom #2 and a 100 µM resorufin β-D-galactopyranoside solution were diluted with the buffer ([…]) containing 10 μM Custom #2 and 5 μM resorufin β-D-galactopyranoside. In addition, the solution was diluted 2-fold with the buffer (4) to prepare a detection solution (2). Nonfluorescent resorufin β-D-galactopyranoside is degraded by β-galactosidase to produce fluorescent resorufin. In this case, the maximum wavelengths of excitation and fluorescence of resorufin are 570 nm and 585 nm, respectively.
In addition, 50 μL of the detection solution (1) was added to 50 μL of each of the prepared standard samples with seven concentrations and the sample for BG measurement, and the resultant solution was used in measurement of MMP14 activity and β-galactosidase activity with a 96-well plate.
Evaluation was performed in the same manner as in Example 1 except that the reaction temperature was set to 30° C. ΔRFU was calculated by subtracting the measured value of the sample for BG measurement from the measured value of each of the samples. In this case, resorufin produced by β-galactosidase activity was simultaneously measured at an excitation wavelength of 545±20 nm and a fluorescence wavelength of 590±20 nm, and ΔRFU was calculated similarly.

[2] = tested on: CD9/CD63/CD81 in the extracellular vesicles; test: Digital CD9/CD63/CD81 sandwich detection with biotinylated detection antibody and streptavidin-conjugated β-galactosidase; assay type: binding, Human; details: Example 33, 30° C., 4 h
Protocol: An anti-CD9 antibody (ab58989), an anti-CD63 antibody (ab59479), and an anti-CD81 antibody (ab59477) were buffer-exchanged into Biotinylation Reaction Buffer to provide an antibody solution. A biotinylation reagent NHS-PEG4-Biotin was added to the solution, and the mixture was stirred and then subjected to a reaction at room temperature for 30 minutes. After that, the resultant was washed with Biotinylation Reaction Buffer, and then recovered with Biotinylation Reaction Buffer to provide a biotinylated detection antibody solution. The biotinylated detection antibody solution was stored at 4° C. until use.
For detection of MMP14 activity, 1 mM Custom #2 and a 100 µM resorufin β-D-galactopyranoside solution were diluted with the buffer (4) to prepare a MMP14 and CD9/CD63/CD81 cocktail detection solution (1) containing 10 μM Custom #2 and 5 μM resorufin β-D-galactopyranoside. In addition, the solution was diluted 2-fold with the buffer (4) to prepare a detection solution (2). Nonfluorescent resorufin β-D-galactopyranoside is degraded by β-galactosidase to produce fluorescent resorufin. In this case, the maximum wavelengths of excitation and fluorescence of resorufin are 570 nm and 585 nm, respectively.
The observation of fluorescence derived from each fluorescent substance was performed under the same conditions as in Example 19 to acquire a fluorescence image. In this case, a TRITC filter was used in the observation of the fluorescence from resorufin.

[3] = tested on: ADAM in the MDA-MB-231-derived extracellular vesicles; test: Detection of ADAM activity of MDA-MB-231-derived extracellular vesicles with 96-well plate; assay type: biochemical, Human; details: Example 39, EV 3.3 μg/mL, reporter 5 μM, buffer (4)
Protocol: (§1) The MMP14 activity was evaluated with a 96-well plate (manufactured by Thermo Fisher Scientific Inc., model number: 137101). A fluorescence intensity was measured with a fluorescence plate reader (Synergy MX, manufactured by BioTek Instruments, Inc.) at […] every 5 min for 1 hour. For measurement wavelengths, an excitation wavelength of 485±20 nm and a fluorescence wavelength of 528±20 nm were used.
In addition, for detection of ADAM activity, 1 mM EPDAB010 or PEPDAB014 was diluted with the buffer (4) to prepare a 10 μM ADAM detection solution. In addition, for detection of Cathepsin D activity, 1 mM CathD was diluted with the buffer (4) to prepare a 10 μM Cathepsin D detection solution.
50 μL of the ADAM detection solution or the Cathepsin D detection solution was added to 50 μL of each of the samples, a reaction was performed at 30° C., and activity was evaluated.

[4] = tested on: ADAM in the MDA-MB-231-derived extracellular vesicles; test: Digital detection of MDA-MB-231-derived extracellular vesicles through ADAM activity in wells; assay type: biochemical, Human; details: for Extracellular vesicle concentration: at a concentration of x1, 50 fL; for Expected value λ / Number of positives / Positive ratio: Example 40, EV 2 μg/mL, reporter 5 μM, 30° C.
Protocol: The concentration of the solution is 4 μg/mL.
50 μL of the ADAM or Cathepsin D detection solution was added to 50 μL of the sample to provide a reaction solution for wells.

[5] = tested on: MMP in the MDA-MB-231-derived extracellular vesicles; test: Evaluation of MMP activity of MDA-MB-231-derived extracellular vesicles with 96-well plate (SensoLyte 520 MMP Substrate Sampler Kit); assay type: biochemical, Human; details: for Fluorescence change after 2 hours of reaction at 30° C.: MP, EV 3.3 μg/mL
Protocol: (§2) 50 μL of the MMP detection solution was added to 50 μL of each of the samples, a reaction was performed at 30° C., and MMP activity was evaluated.
(§3) 50 μL of each of the MMP detection solutions was added to 50 μL of each of the samples, a reaction was performed at 30° C., and MMP activity was evaluated.

[6] = tested on: MMP in the A549-derived extracellular vesicles; test: Evaluation of MMP activity of A549-derived extracellular vesicles with 96-well plate (SensoLyte 520 MMP Substrate Sampler Kit); assay type: biochemical, Human; details: Example 34, EV 4 μg/mL, reporter 5 μM, buffer (4)
Protocol: as §1, §2

[7] = tested on: MMP in the MDA-MB-231-derived extracellular vesicles; test: Digital detection of MDA-MB-231-derived extracellular vesicles through MMP activity in wells (SB substrates); assay type: biochemical, Human; details: for Expected value λ / Number of positives / Positive ratio: 6 h
Protocol: The concentration of the solution is 10 μg/mL. […] The solution was further diluted 2-fold to prepare a standard sample at a concentration of x1/4, further diluted 3-fold to prepare a standard sample at a concentration of x1/12, and further diluted 3-fold to prepare a standard sample at a concentration of x1/36. Thus, the standard samples with four concentrations were prepared.
In addition, 1 mM Alexa Fluor 647 was used as a standard fluorescent substance, and each of the MMP14 detection solutions contained the standard fluorescent substance at a final concentration of 2 μM.
as §3

[8] = tested on: MMP in the A549-derived extracellular vesicles; test: Digital detection of A549-derived extracellular vesicles through MMP activity in wells (SB substrates); assay type: biochemical, Human; details: for Extracellular vesicle concentration: at a concentration of x1, 50 fL; for Expected value λ / Number of positives / Positive ratio: Example 36, EV 5 μg/mL, reporter 5 μM, 30° C.
Protocol: The concentration of the solution is 10 μg/mL.
50 μL of each of the MMP detection solutions was added to 50 μL of the sample to provide a reaction solution for wells.

[9] = Example 35, 30° C., EV 0 (free of extracellular vesicles, pseudopositive)
[10] = Example 35, 30° C., EV 1/4 a.u.
[11] = Example 35, 30° C., EV 1/12 a.u.
[12] = Example 35, 30° C., EV 1/36 a.u.
[13] = Example 35, reporter 5 μM, 30° C., EV 1/2 a.u. (5 μg/mL in reaction solution)

O=c1ccc2nc3ccc(O[C@@H]4O[C@H](CO)[C@H](O)[C@H](O)[C@H]4O)cc3oc-2c1 [resorufin β-D-galactopyranoside]
β-galactosidase activity (temporal changes in fluorescence intensity) [1]: the activity was not able to be detected at all | Expected value λ (CD9/CD63/CD81) ([2]; EV 0 (BG)): 0.00927 | Number of positives (CD9/CD63/CD81) ([2]; EV 0 (BG)): 20 | Expected value λ (CD9/CD63/CD81) ([2]; EV X1 (sample 10 μg/mL)): 2.86 | Number of positives (CD9/CD63/CD81) ([2]; EV X1 (sample 10 μg/mL)): 2,166 | Expected value λ (CD9/CD63/CD81) ([2]; EV X1/3): 1.87 | Number of positives (CD9/CD63/CD81) ([2]; EV X1/3): 2,315 | Expected value λ (CD9/CD63/CD81) ([2]; EV X1/9): 0.750 | Number of positives (CD9/CD63/CD81) ([2]; EV X1/9): 1,544 | Expected value λ (CD9/CD63/CD81) ([2]; EV X1/27): 0.339 | Number of positives (CD9/CD63/CD81) ([2]; EV X1/27): 725 | Expected value λ (CD9/CD63/CD81) ([2]; EV X1/81): 0.0928 | Number of positives (CD9/CD63/CD81) ([2]; EV X1/81): 144 | Expected value λ (CD9/CD63/CD81) ([2]; EV X1/243): 0.0427 | Number of positives (CD9/CD63/CD81) ([2]; EV X1/243): 78 | Expected value λ (CD9/CD63/CD81) ([2]; EV X1/729): 0.0240 | Number of positives (CD9/CD63/CD81) ([2]; EV X1/729): 44

Dabcyl-EHADLLAVVAK (5FAM)-NH2 ({Dabcyl′}-EHADLLAVVAK(5FAM)-NH2; SMILES CC(C)C[C@H](NC(=O)[C@H](CC(C)C)NC(=O)[C@H](CC(=O)O)NC(=O)[C@H](C)NC(=O)[C@H](Cc1c[nH]cn1)NC(=O)[C@H](CCC(=O)O)NC(=O)c1ccc(/N=N/c2ccc(N(C)C)cc2)cc1)C(=O)N[C@@H](C)C(=O)N[C@H](C(=O)N[C@H](C(=O)N[C@@H](C)C(=O)N[C@@H](CCCCNC(=O)c1ccc2c(c1)C(=O)OC21c2ccc(O)cc2Oc2cc(O)ccc21)C(N)=O)C(C)C)C(C)C) [PEPDAB014]
Fluorescence change after 2 hours of reaction at 30° C. [3]: 6,939 ΔRFU | Expected value λ (×1) ([4]; Example 40, 4 hr): 0.2813 | Extracellular vesicle concentration ([4]; Example 40, 4 hr): 5.625e+09 mL⁻¹ | Expected value λ (×1) ([4]; Example 40, 24 hr): 0.4087 | Extracellular vesicle concentration ([4]; Example 40, 24 hr): 8.174e+09 mL⁻¹ | Expected value λ ([4]; 4 hr): 0.05625 | Number of positives ([4]; 4 hr): 1,536 | Positive ratio ([4]; 4 hr): 0.0547 | Expected value λ ([4]; 24 hr): 0.08174 | Number of positives ([4]; 24 hr): 2,204 | Positive ratio ([4]; 24 hr): 0.07849

QXL520-Arg-Pro-Leu-Ala-Leu-Trp-Arg-Lys(5-FAM)-NH2 (QXL520-RPLALWRK(5FAM)-NH2) [SB9]
Fluorescence change after 1 hour of reaction at 30° C. ([5]; Example 34, EV 4 μg/mL, reporter 5 μM, buffer (4)): 62,330 ΔRFU | Fluorescence change after 2 hours of reaction at 30° C. ([5]; 1.25 μM with 1.25 μM Custom #2T): 39,228 ΔRFU | Fluorescence change after 2 hours of reaction at 30° C. ([5]; 5 μM with 5 μM Custom #2T): 40,247 ΔRFU | Fluorescence change after 1 hour of reaction at 30° C. [6]: 1,775 ΔRFU | Expected value λ [7, 9]: 3.56E−05 | Number of positives [7, 9]: 1 | Positive ratio [7, 9]: 3.56E−05 | Expected value λ [7, 10]: 0.2881 | Number of positives [7, 10]: 7,010 | Positive ratio [7, 10]: 0.2503 | Expected value λ [7, 11]: 0.01591 | Number of positives [7, 11]: 442 | Positive ratio [7, 11]: 0.01579 | Expected value λ [7, 12]: 0.01251 | Number of positives [7, 12]: 349 | Positive ratio [7, 12]: 0.01243 | Extracellular vesicle concentration ([7]; Example 35, 6 h, at a concentration of x1, 50 fL): 4.7e+10 mL⁻¹ | Expected value λ (×1) ([7]; Example 35, 6 h, from power approximation equation): 2.3593 | Expected value λ [7, 13]: 0.9949 | Number of positives [7, 13]: 17,697 | Positive ratio [7, 13]: 0.6302 | Expected value λ (×1) ([8]; Example 36, 4 hr): 0.1169 | Extracellular vesicle concentration ([8]; Example 36, 4 hr): 2.338e+09 mL⁻¹ | Expected value λ (×1) ([8]; Example 36, 24 hr): 0.01093 | Extracellular vesicle concentration ([8]; Example 36, 24 hr): 2.185e+08 mL⁻¹ | Expected value λ ([8]; 4 hr): 0.05844 | Number of positives ([8]; 4 hr): 1,594 | Positive ratio ([8]; 4 hr): 0.05677 | Expected value λ ([8]; 24 hr): 0.00546 | Number of positives ([8]; 24 hr): 153 | Positive ratio ([8]; 24 hr): 0.00545

Dabcyl-SPLAQAVRSSK (5FAM)-NH2 ({Dabcyl′}-SPLAQAVRSSK(5FAM)-NH2; SMILES CC(C)C[C@H](NC(=O)[C@@H]1CCCN1C(=O)[C@H](CO)NC(=O)c1ccc(/N=N/c2ccc(N(C)C)cc2)cc1)C(=O)N[C@@H](C)C(=O)N[C@@H](CCC(N)=O)C(=O)N[C@@H](C)C(=O)N[C@H](C(=O)N[C@@H](CCCNC(=N)N)C(=O)N[C@@H](CO)C(=O)N[C@@H](CO)C(=O)N[C@@H](CCCCNC(=O)c1ccc2c(c1)C(=O)OC21c2ccc(O)cc2Oc2cc(O)ccc21)C(N)=O)C(C)C) [PEPDAB010]
Fluorescence change after 2 hours of reaction at 30° C. [3]: 74,285 ΔRFU | Expected value λ (×1) ([4]; Example 40, 4 hr): 0.4984 | Extracellular vesicle concentration ([4]; Example 40, 4 hr): 9.968e+09 mL⁻¹ | Expected value λ (×1) ([4]; Example 40, 24 hr): 0.8509 | Extracellular vesicle concentration ([4]; Example 40, 24 hr): 1.702e+10 mL⁻¹ | Expected value λ ([4]; 4 hr): 0.09968 | Number of positives ([4]; 4 hr): 2,664 | Positive ratio ([4]; 4 hr): 0.09487 | Expected value λ ([4]; 24 hr): 0.1702 | Number of positives ([4]; 24 hr): 4,394 | Positive ratio ([4]; 24 hr): 0.1565
